Key:
[1] = in vitro; details: CD-1, mouse, plasma
[2] = in vitro; details: human, Caco-2
[3] = in vitro; assay type: in vitro ADME; details: CD-1, mouse, brain homogenate
[4] = 30 mg/kg
[5] = in vivo; details: female, Balbc nude, mouse, 30 mg/kg
[6] = tested on: p-AKT in NCI-H1993 (KRAS^WT, PIK3CA^WT) cells; assay: Basal p-AKT assay; assay type: cell-based, human; details: NCI‐H1993 (KRAS^WT, PIK3CA^WT) cell line
[7] = tested on: NCI-H1993 (KRAS^WT); assay: Proliferation assay; assay type: cell-based, human; details: NCI-H1993 (Figure S2D)
[8] = tested on: NCI-H358 (KRAS^G12C); assay: Proliferation assay; assay type: cell-based, human; details: NCI-H358 (Figure S2D)
[9] = tested on: p-AKT in NCI-H358 (KRAS^G12C, PIK3CA^WT) cells; assay: Basal p-AKT assay; assay type: cell-based, human; details: NCI‐H358 (KRAS^G12C, PIK3CA^WT) cell line

Row | fraction unbound at 5 h, 1 μM [1] | Papp A→B at 120 min, 10 μM [2] [×10⁻⁶ cm/s] | fraction unbound at 5 h, 1 μM [3] | Unbound brain AUC ([4]; AUCbrain × fu,brain) [µM·h] | Unbound plasma AUC ([4]; AUCplasma × fu,plasma) [µM·h] | AUC [5] [µM·h] | Kp uu [5] | SMILES | effect on p‐AKT level [6] | inhibitory effect on cell proliferation [7] | inhibitory effect on cell proliferation [8] | effect on p‐AKT level [9]
1 | 0.002 | 0.8 | 0.001 | 0.0009 | 0.089 | 44.3 | 0.01 | C=C(F)C(=O)N1CCN(c2nc(OC[C@@H]3CCCN3C)nc3c2CCN(c2cccc4cccc(Cl)c24)C3)C[C@@H]1CC#N [Adagrasib, adagrasib] | – | – | – | –
2 | – | – | – | – | – | – | – | C[C@H](Nc1ccc2c(c1)OCCn1cc(N3C(=O)OC[C@H]3C(F)F)nc1-2)C(N)=O [GDC-0077] | reduced | very weak inhibitory effect | very weak inhibitory effect | reduced
